Here are results for 2 molecules from patent US12274725B2, “Zika virus strains for treatment of glioma” (priority 2017, dated 2025).

In one data set the test system is GSC lines (387 and 3565). The data set can be described thus: Temozolomide cytotoxicity assay. Format: cell-based, human. The note with it: 7 days. As for the experimental part: Two GSC lines (387 and 3565) were treated with indicated concentrations of temozolomide for 7 days. Relative cell number was assayed by CellTiter-Glo on day 7 and normalized to PBS control.
GSCs were plated at 1,000 cells/well in 96-well tissue culture treated plates (TPP) and allowed to attach overnight. For viral infection and growth inhibition assays, wild-type ZIKV-Dakar, ZIKV-Brazil, or mouse adapted ZIKV-Dakar were used at an MOI of 5. For combined drug+virus therapy experiments, wild-type parental ZIKV-Cambodia and its derivative ZIKV-E218A were used for infection. Temozolomide (TMZ, Sigma) was dissolved in PBS and diluted in Neurobasal complete media. ZIKV was added at an MOI of 5 by itself or 4 h before TMZ (250 μM) addition. Cell supernatants were stored at −80° C. for subsequent analysis.

In the next data set the test system is recurrent GBM. The note with it: cited from earlier work.

As for `Cn1nnc2c(C(N)=O)ncn2c1=O` [TMZ, Temozolomide], in the data set with GSC lines (387 and 3565), the “effective TMZ concentration” value amounted to 250 µM.

For the molecule “nivolumab: immune checkpoint inhibitor tested in CheckMate 143”, the safety in patients result in the data set on recurrent GBM (in vivo) is “safe”. In the data set with recurrent GBM (recurrent GBM), the overall response rate entry is “lower than the current standard, bevacizumab”.
